{
  "source": "paper PMC4961579",
  "about": "(Journal of neurochemistry, 2016)",
  "test_in_all_cases": "two-electrode voltage clamp, micro-transplanted oocytes",
  "type_in_all_cases": "cell-based",
  "key": {"[1]": {"test_system": "NMDA receptor (native synaptic, rat prefrontal cortex synaptosomes)", "conditions": "300 µM NMDA, 30 µM glycine, -100 mV, pH 7.4"}, "[2]": {"test_system": "GABAA receptor (native synaptic, human cortical synaptosomes)", "conditions": "positive allosteric modulator; 30 µM GABA; legend says 212% potentiation"}, "[3]": {"test_system": "AMPA receptor (native synaptic, rat prefrontal cortex synaptosomes)", "conditions": "antagonist; 100 µM AMPA + 30 µM cyclothiazide; -100 mV, pH 7.4"}, "[4]": {"test_system": "AMPA receptor (native synaptic, human cortical synaptosomes)", "conditions": "antagonist; 100 µM AMPA + 100 µM cyclothiazide; -100 mV, pH 7.4"}, "[5]": {"target": "AMPA receptor with TARP gamma-8 (native, rat hippocampal synaptosomes) (Rattus norvegicus, UniProt P19490+P19491+Q8VHW5)", "sequence (Q8VHW5 whole entry)": "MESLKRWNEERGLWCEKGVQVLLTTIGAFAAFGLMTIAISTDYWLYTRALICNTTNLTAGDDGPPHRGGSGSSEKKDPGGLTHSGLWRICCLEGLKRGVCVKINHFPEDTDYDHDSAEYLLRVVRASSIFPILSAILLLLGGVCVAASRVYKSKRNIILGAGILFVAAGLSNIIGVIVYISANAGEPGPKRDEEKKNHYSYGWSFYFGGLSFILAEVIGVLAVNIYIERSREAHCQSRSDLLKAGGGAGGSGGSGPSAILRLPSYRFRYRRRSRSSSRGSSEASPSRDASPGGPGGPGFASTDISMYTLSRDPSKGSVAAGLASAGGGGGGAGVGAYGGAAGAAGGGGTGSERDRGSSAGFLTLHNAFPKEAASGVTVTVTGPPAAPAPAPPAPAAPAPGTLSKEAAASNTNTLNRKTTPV", "sequence (P19490 19-907)": "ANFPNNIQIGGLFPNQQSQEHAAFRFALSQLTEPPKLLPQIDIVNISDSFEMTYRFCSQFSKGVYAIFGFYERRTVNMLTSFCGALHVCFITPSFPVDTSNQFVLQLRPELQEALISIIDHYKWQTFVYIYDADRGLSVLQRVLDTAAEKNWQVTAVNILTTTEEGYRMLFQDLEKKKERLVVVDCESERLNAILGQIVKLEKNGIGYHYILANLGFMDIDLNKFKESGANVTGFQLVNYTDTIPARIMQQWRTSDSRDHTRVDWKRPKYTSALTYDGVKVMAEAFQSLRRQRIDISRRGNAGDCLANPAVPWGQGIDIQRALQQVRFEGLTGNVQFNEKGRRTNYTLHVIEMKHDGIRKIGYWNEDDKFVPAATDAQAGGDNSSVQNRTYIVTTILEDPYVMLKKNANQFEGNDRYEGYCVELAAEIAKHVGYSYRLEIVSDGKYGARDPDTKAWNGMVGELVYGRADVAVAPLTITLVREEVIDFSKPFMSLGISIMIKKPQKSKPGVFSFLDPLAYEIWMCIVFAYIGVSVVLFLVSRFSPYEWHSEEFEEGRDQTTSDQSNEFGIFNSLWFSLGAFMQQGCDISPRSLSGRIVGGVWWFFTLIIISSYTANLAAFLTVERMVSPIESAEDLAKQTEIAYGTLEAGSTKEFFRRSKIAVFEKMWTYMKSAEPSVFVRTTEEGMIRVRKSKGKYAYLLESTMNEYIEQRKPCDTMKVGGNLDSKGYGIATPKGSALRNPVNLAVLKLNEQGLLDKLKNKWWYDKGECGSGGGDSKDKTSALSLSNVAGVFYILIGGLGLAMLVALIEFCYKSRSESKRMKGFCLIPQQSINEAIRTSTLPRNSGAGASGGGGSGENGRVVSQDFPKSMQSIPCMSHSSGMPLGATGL", "sequence (P19491 22-883)": "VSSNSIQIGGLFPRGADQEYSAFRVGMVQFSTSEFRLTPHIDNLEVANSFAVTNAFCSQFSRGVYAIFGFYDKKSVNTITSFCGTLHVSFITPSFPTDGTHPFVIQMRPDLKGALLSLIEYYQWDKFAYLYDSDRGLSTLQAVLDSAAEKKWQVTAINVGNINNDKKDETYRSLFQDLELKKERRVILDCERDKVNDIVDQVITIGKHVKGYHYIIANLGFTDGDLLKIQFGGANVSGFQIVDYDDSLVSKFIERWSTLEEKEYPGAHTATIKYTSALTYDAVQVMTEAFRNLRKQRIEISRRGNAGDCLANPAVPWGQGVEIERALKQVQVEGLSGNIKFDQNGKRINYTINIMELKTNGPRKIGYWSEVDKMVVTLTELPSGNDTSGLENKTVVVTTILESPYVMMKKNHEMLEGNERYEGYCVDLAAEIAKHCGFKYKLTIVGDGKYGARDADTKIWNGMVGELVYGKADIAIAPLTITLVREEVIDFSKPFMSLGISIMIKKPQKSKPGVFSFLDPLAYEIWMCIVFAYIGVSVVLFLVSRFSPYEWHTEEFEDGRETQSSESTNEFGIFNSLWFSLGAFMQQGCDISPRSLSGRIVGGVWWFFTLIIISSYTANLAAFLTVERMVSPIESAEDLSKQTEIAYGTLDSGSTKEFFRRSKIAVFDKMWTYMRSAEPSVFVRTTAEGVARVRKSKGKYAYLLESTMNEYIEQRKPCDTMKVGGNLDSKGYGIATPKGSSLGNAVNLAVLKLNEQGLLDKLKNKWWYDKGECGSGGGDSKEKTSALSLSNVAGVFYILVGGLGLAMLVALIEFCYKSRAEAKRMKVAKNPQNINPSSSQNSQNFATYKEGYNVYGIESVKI", "conditions": "read-out: % inhibition at 10 μM"}},
  "data": [
    {"compound": "CC(C(O)c1ccc(O)cc1)N1CCC(Cc2ccccc2)CC1", "note": "(stereo not drawn) [ifenprodil]", "values": [
      {"measurement": "% inhibition at 10 μM", "setting": "[1]; GluN2B-selective antagonist", "result": 75, "unit": "%"}
    ]},
    {"compound": "Cc1ccc(-c2nc3ccc(C)cn3c2CC(=O)N(C)C)cc1", "note": "[zolpidem]", "values": [
      {"measurement": "% of control at 1 μM", "setting": "[2]", "result": 212, "unit": "%"}
    ]},
    {"compound": "C[C@]12N[C@H](Cc3ccccc31)c1ccccc12", "note": "[MK801]", "values": [
      {"measurement": "% inhibition at 1 μM", "setting": "[1]; non-competitive antagonist", "result": 100, "unit": "%"}
    ]},
    {"compound": "N#Cc1ccccc1-c1cc(-c2ccccn2)cn(-c2ccccc2)c1=O", "note": "[perampanel]", "values": [
      {"measurement": "% inhibition at 30 μM", "setting": "[3]", "result": 97, "unit": "%"},
      {"measurement": "% inhibition at 30 μM", "setting": "[4]", "result": 91, "unit": "%"}
    ]},
    {"compound": "C[C@@H](c1ccc2[nH]c(=O)sc2c1)c1ccn(-c2ccc(OCCO)cn2)n1", "note": "[LY3130481]", "values": [
      {"measurement": "inhibition at 10 µM", "setting": "[5]", "result": "55 ± 6.8", "unit": "%"}
    ]}
  ]
}
